This is an account of results in patent US11040951B2, “Methods and compositions relating to genotoxin colibactin” (PRESIDENT AND FELLOWS OF HARVARD COLLEGE, priority 2018, dated 2021).

As usually defined, the Km is the concentration of substrate that gives half-maximal velocity.

Non-standard residues stand in square brackets, D forms with d. Residues, ends and D or L forms follow the SMILES beside them. *: point of attachment. Myristoyl = CCCCCCCCCCCCCC(=O)*

Common to all, as to type: biochemical, E. coli
Data set [1] has as its system CCCCCCCCCCCCCC(=O)N[C@H](CC(N)=O)C(=O)N[C@@H](C)C(=O)OC. In words: Kinetics of ClbPFL-mediated cleavage of substrates 1 and 2 (FIG. 8). The note with it: pH 8.0. From the text: (§1) FIG. 8 depicts the kinetics of ClbPFL-mediated cleavage of substrates 1 and 2. Each data point is an average of 3 biological replicates with error bars representing 1 SD. Solid lines are non-linear regression fits of data points to the Michaelis-Menten equation.
(§2) As used herein “ClbP” or “colibactin P” refers to a membrane bound periplasmic peptidase that cleaves an N-acyl-D-asparagine motif (the ‘prodrug scaffold’) from the N-terminus of precolibactin to liberate the active colibactin (FIG. 1). The sequences of ClbP are known in the art, e.g., the polypeptide sequence is available in the Uniprot database as accession number Q0P7K6 (SEQ ID NO: 1).
(§3) We obtained purified enzyme by separating the cell components using ultracentrifugation, solubilizing the membranes in an n-dodecyl-β-D-maltoside (DDM)-containing buffer, and per¬forming immobilized metal affinity chromatography. Because the structure of precolibactin has not yet been fully elucidated, we tested purified ClbPFL against a variety of synthetic precolibactin analogues. […] We chose substrate 2 for a more detailed structure—activity relationship (SAR) study. […]

Data set [2] deals with CCCCCCCCCCCCCC(=O)N[C@H](CC(N)=O)C(=O)N[C@@H](C)CCC(=O)CC(=O)NC1(C(=O)O)CC1. The description is as above. The note with it: pH 8.0.
Source text: as §1, §2, §3

Data set [3] has as its system CCCCCCCCCCCCCC(=O)N[C@H](CC(N)=O)C(=O)N[C@@H](C)C(=O)OC. In words: In vitro kinetics of ClbPFL-mediated cleavage of substrates, o-phthaldialdehyde (OPA) derivatization of L-alanine product with fluorescence detection (FIGS. 2B, 10, 11). The note with it: pH 8.0. As for the experimental part:
(§4) The top graph of FIG. 2A depicts LC-MS detection of the prodrug scaffold ([M+H]^+: 343.2597 m/z) released by the hydrolysis of (1) by ClbP in vitro. Reactions were carried out in 50 mM Tris pH 8.0, 200 mM NaCl, 0.1 μM enzyme. 0.02% w/v DDM was added for all reactions involving full-length ClbP (Error bars are SD, n=3). The bottom graph of FIG. 2B depicts kinetic analysis of ClbP acting on synthetic precolibactin-mimic substrate (1). Note that this substrate is insoluble above 200 μM under assay conditions. Rates were calculated by quenching reactions in 1-minute intervals in methanol and quantifying the amount of substrate cleaved by derivatization of the L-alanine product with o-phthaldialdehye (OPA) and fluorescence detection (see Examples) (Error bars are SD, n=3). Substrate is insoluble above 200 μM under assay conditions. All kinetics experiments are averages of 3 independent replicates, reactions were carried out in 50 mM Sodium Phosphate pH 8.0, 200 mM NaCl, 0.02% w/v DDM, 0.1 μM enzyme. The bottom graph of FIG. 2B depicts the approach and substrates sampled in this SAR study. All kinetics experiments are averages of 3 independent replicates, reactions were carried out in 50 mM Sodium Phosphate pH 8.0, 200 mM NaCl, 0.02% w/v DDM, 0.1 μM ClbP-FL (full length) (also referred to herein as ClbPFL). All errors are ±SD.
(§5) FIGS. 10A-10C depict the kinetics of ClbPFL-mediated cleavage of substrates (FIG. 10A) 2, (FIG. 10B) 3, and (FIG. 10C) 4. Each data point is an average of 3 biological replicates with error bars representing 1 SD. Solid lines are non-linear regression fits of data points to the Michaelis-Menten model.
(§6) FIG. 11 depicts the kinetic parameters for substrates 2, 3, and 4. […]
(§7) To determine the key features for substrate recognition by full-length ClbP, we undertook a structure-activity-relationship (SAR) focusing on three key regions of the substrate. […] Using a higher-throughput fluorescence derivatization assay, we determined kinetic parameters for several of these substrates (FIG. 2B). […]

In data set [4] the test system is CCCC(=O)N[C@H](CC(N)=O)C(=O)N[C@@H](C)C(=O)OC. Described as above. The note with it: pH 8.0. As for the experimental part: as §4, §5, §6, §7
Data set [5] has as its system COC(=O)[C@H](C)NC(=O)[C@@H](CC(N)=O)NC(=O)CCCc1ccccc1. The data set is described as above. As to conditions: pH 8.0. The protocol:
as §4, §5, §6, §7

In the next data set the test system is ClbPFL-S95A. Nature of the data set: In vitro cleavage of synthetic substrates by inactive mutant, LC-MS detection. As for the experimental part: as §4
(§8) Optical densities of E. coli cultures were determined with a DU 730 Life Sciences UV/Vis spectrophotometer (Beckman Coulter, Indianapolis, Ind.) by measuring absorbance at 600 nm. Ultracentrifugation was performed on a Beckman-Coulter Optima XE-90 Ultracentrifuge fitted with a type 45 Ti rotor in 70 mL polycarbonate tubes. Solvents and formic acid used for LC-MS were B & J Brand High Purity Solvents (Honeywell Research Chemicals). High-resolution LC-MS analyses of enzyme assays and synthetic compounds were performed on an Agilent 6530 Q-TOF Mass Spectrometer fitted with a dual-spray electrospray ionization (ESI) source. […] All experiments were performed in positive ion mode, and the masses detected corresponded to [M+H]+ ions unless otherwise noted. […]

For a further data set, the system named is ClbPFL. Nature of the data set: In vitro kinetics assay with ClbPFL (o-phthaldialdehyde derivatization). The protocol: In vitro kinetics assays with ClbPFL (comparison of substrates 2, 3, and 4 using o-phthaldialdehyde derivatization): Assays were run in triplicate in 1.5 mL deep-well plates. ClbPFL-CHis10 was defrosted from −80° C. stocks on ice, then buffer exchanged into phosphate assay buffer using Zeba Spin 40K MWCO desalting columns (ThermoFisher Scientific). The enzyme was then diluted to 0.6 μM in phosphate assay buffer and 50 μL of this stock was deposited in the appropriate wells. The substrate of interest was prepared in a 2-fold dilution series in phosphate assay buffer. Reactions were initiated by the addition of 250 μL of substrate stock to each assay well to a final concentration of 0.1 μM ClbP, 12.5-200 μM substrate, 3% DMSO and incubated at 25° C. Reaction mixtures were pipetted briefly to mix. […] 50 μL of each supernatant from the quenched reactions and standard curves were then transferred to the appropriate wells, pipetted once to mix, and then fluorescence was immediately measured on a plate reader (Bio-Tek Synergy HTX multimode plate reader, measurement settings −360/40 nm excitation filter, 440/20 nm emission filter, detector gain: 35). Fluorescence was measured every 30 seconds for 10 minutes and the maximum value achieved for each well was used for calculations. […]

The subject of data set [6] is ClbPFL (full-length ClbP). In words: In vitro cleavage of synthetic substrates by ClbPFL, LC-MS detection. As to conditions: for cleavage by ClbPFL in vitro: LC-MS detection of cleavage product. The protocol: as §4
Optical densities of E. coli cultures were determined with a DU 730 Life Sciences UV/Vis spectrophotometer (Beckman Coulter, Indianapolis, Ind.) by measuring absorbance at 600 nm. Ultracentrifugation was performed on a Beckman-Coulter Optima XE-90 Ultracentrifuge fitted with a type 45 Ti rotor in 70 mL polycarbonate tubes. Solvents and formic acid used for LC-MS were B & J Brand High Purity Solvents (Honeywell Research Chemicals). High-resolution LC-MS analyses of enzyme assays and synthetic compounds were performed on an Agilent 6530 Q-TOF Mass Spectrometer fitted with a dual-spray electrospray ionization (ESI) source. The capillary voltage was set to 3.5 kV, the fragmentor voltage to 175 V, the skimmer voltage to 65 V, and the Oct 1 RF to 750 V. The drying gas temperature was maintained at 275° C. with a flow rate of 8 L/min and a nebulizer pressure of 35 psi. A standard calibrant mix was introduced continuously during all experiments via the dual-spray ESI source. For analytical liquid chromatography, unless otherwise noted, experiments were performed using an Agilent Technologies 1200 series LC on a Hypersil GOLDaq™ C18 reverse phase column (50×3 mm, Thermo Scientific) with the following elution conditions: a gradient from 35% solvent A:65% solvent B to 100% solvent A over 5 minutes, holding at 100% A for 2 minutes, followed by a gradient back to 35% solvent A over 1 minute and holding at 35% solvent A for 3.5 minutes (solvent A: acetonitrile+0.1% formic acid; solvent B: water+0.1% formic acid; flow rate=0.4 mL/minute; injection volume=10 μL). All experiments were performed in positive ion mode, and the masses detected corresponded to [M+H]+ ions unless otherwise noted. Masses were found within 5 ppm of the expected [M+H]+ masses.
For all in vitro assays involving ClbPFL and ClbFL-S95A “Tris assay buffer” refers to a buffer composed of 50 mM Tris, 200 mM NaCl, 0.02% w/v DDM, pH 8.0. Likewise, “phosphate assay buffer” refers to 50 mM sodium phosphate, 200 mM NaCl, 0.02% w/v DDM, pH 8.0.

A further data set concerns ClbPpep. In words: In vitro cleavage of synthetic substrates by isolated peptidase domain, LC-MS detection. The protocol: as §4, §8

With “ClbPFL (full-length ClbP, ClbPFL-CHis10) (Escherichia coli)”, the Km amounted to 75 ± 23 µM in data set [1]; 16 ± 2 µM in data set [2]; 130 ± 26 µM in [3]; 680 ± 470 µM in data set [4]; 246 ± 70 µM in data set [5].
As for `CCCCCCCCCCCCCC(=O)N[C@H](CC(N)=O)C(=O)N[C@@H](C)CCC(=O)CC(=O)NC1(C(=O)O)CC1` [Compound 1], the “cleavage by ClbPFL-S95A in vitro” value in the data set with ClbPFL-S95A was “no activity”. Moreover, the “kinetic parameters / hydrolysis efficiency compared with the reference substrate” value in the data set on ClbPFL was “comparable”. Further, the “cleavage by ClbPFL in vitro” value in [6] is listed as “rapidly in vitro”. In addition, the “cleavage by ClbPpep in vitro” value with ClbPpep was “no activity”.
`CCCCCCCCCCCCCC(=O)N[C@H](CCC(N)=O)C(=O)N[C@@H](C)C(=O)OC` [(8)] (Myristoyl-[dQ]-Ala-OMe): the “cleavage by ClbPFL in vitro” value in data set [6] is reported as “no cleavage products were detected”.
The same measure, in the same setting: under `CCCCCCCCCCCCCC(=O)N[C@@H](CC(N)=O)C(=O)N[C@@H](C)C(=O)OC` [(7)] (Myristoyl-Asn-Ala-OMe) stands “no cleavage products were detected”.
On to `CCCCCCCCCCCCCC(=O)N[C@H](CC(=O)O)C(=O)N[C@@H](C)C(=O)OC` [(6)] (Myristoyl-[dD]-Ala-OMe), for which the “cleavage by ClbPFL in vitro” value in data set [6] is recorded as “cleaved in low amounts”. For the same compound, the “amount cleaved by ClbPFL, fold less than (1)” value in data set [6] (LC-MS, relative to (1)) was ~100 fold.
